Two compounds from BindingDB's records for doi:10.1021/jm950807f (University of Minnesota, 1996) can be followed below.

pKi: −log10 of the molar value.

The assay in a line: Binding affinity against Delta Opioid receptor in Guinea pig brain membranes.

In general, pKi refers to −log10 of the Ki, conventionally taken in molar units. A high value points to a low Ki. Compound `NC1=NC([C@]2(N)CC[C@@]3(O)[C@H]4Cc5ccc(O)c6c5C3(CCN4CC3CC3)[C@H]2O6)=N[C@]12CC[C@@]1(O)[C@H]3Cc4ccc(O)c5c4C1(CCN3CC1CC1)[C@H]2O5` [5-amino-2,4(Bis-4-cyclopropylmethyl-10,17-dihydroxy-(1S,5R,13R,17S)-12-oxa-4-azapentacyclo[9.6.1.01,13.05,17.07,18]octadeca-7(18),8,10-trien-14-one) imidazole] gave a negative-log Ki (pKi) of 6.74.

The compound `N[C@@]1(C2=N[C@]3(CC[C@@]4(O)[C@H]5Cc6ccc(O)c7c6C4(CCN5CC4CC4)[C@H]3O7)C(=O)N2)CC[C@@]2(O)[C@H]3Cc4ccc(O)c5c4C2(CCN3CC2CC2)[C@H]1O5` [(4S,5'R,13'R,17'S)-2-[(5R,13R,14R,17S)-14-amino-4-(cyclopropylmethyl)-10,17-dihydroxy-12-oxa-4-azapentacyclo[9.6.1.0^{1,13}.0^{5,17}.0^{7,18}]octadeca-7(18),8,10-trien-14-yl]-4'-(cyclopropylmethyl)-10',17'-dihydroxy-3,5-dihydro-12'-oxa-4'-azaspiro[imidazole-4,14'-pentacyclo[9.6.1.0^{1,13}.0^{5,17}.0^{7,18}]octadecane]-7',9',11'(18')-trien-5-one] showed a pKi of 8.91.
